Patent US11414424B2, “Cardiac sarcomere inhibitors” (Cytokinetics, Inc., priority 2018, dated 2022)

system: bovine cardiac myofibrils; assay: Myofibril assay: PK/LDH-coupled steady-state ATPase activity of skinned bovine cardiac myofibrils; type: biochemical; conditions: Ca2+ activating to 75% of maximal rate
How it was run: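 Steady-state ATPase of detergent-skinned bovine left-ventricular myofibrils (1 mg/mL), PK/LDH-coupled NADH read at 340 nm, in PIPES/MgCl2 buffer pH 6.8 with 50 μM ATP, 0.6 mM EGTA and CaCl2 set for 50% or 75% activation. Inhibition of activity measured.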

SMILES | CDMF75 IC15 [nM]
CC(=O)N1CC2(C1)C(=O)N(c1ncc(Cl)cc1F)CC(=O)N2Cc1ccc(C(F)(F)F)cc1 [Compound 528, 2-acetyl-8-(5-chloro-3-fluoropyridin-2-yl)-5-(4-(trifluoromethyl)benzyl)-2,5,8-triazaspiro[3.5]nonane-6,9-dione] | 2900
CC(=O)N1CC2(C1)C(=O)N(c1ncc(C#N)cc1C)CC(=O)N2Cc1ccc(C(F)(F)F)cc1 [Compound 529, 6-(2-acetyl-6,9-dioxo-5-(4-(trifluoromethyl)benzyl)-2,5,8-triazaspiro[3.5]nonan-8-yl)-5-methylnicotinonitrile] | 5500
CC(=O)N1CC2(C1)C(=O)N(c1ncc(C#N)cc1F)CC(=O)N2Cc1ccc(C(F)(F)F)cc1 [Compound 530, 6-(2-acetyl-6,9-dioxo-5-(4-(trifluoromethyl)benzyl)-2,5,8-triazaspiro[3.5]nonan-8-yl)-5-fluoronicotinonitrile] | 4700
CNc1ccccc1C(=O)N1CC2(C1)C(=O)N(c1ccc(C#N)cc1F)CC(=O)N2Cc1ccc(C(F)(F)F)cc1 [Compound 531, 3-fluoro-4-(2-(2-(methylamino)benzoyl)-6,9-dioxo-5-(4-(trifluoromethyl)benzyl)-2,5,8-triazaspiro[3.5]nonan-8-yl)benzonitrile] | 5000
COC(=O)c1ccccc1N1CC2(C1)C(=O)N(c1ccc(C#N)cc1F)CC(=O)N2Cc1ccc(C(F)(F)F)cc1 [Compound 532, methyl 2-(8-(4-cyano-2-fluorophenyl)-6,9-dioxo-5-(4-(trifluoromethyl)benzyl)-2,5,8-triazaspiro[3.5]nonan-2-yl)benzoate] | 200
COC(=O)c1cccc(N2CC3(C2)C(=O)N(c2ccc(C#N)cc2F)CC(=O)N3Cc2ccc(C(F)(F)F)cc2)c1 [Compound 533, methyl 3-(8-(4-cyano-2-fluorophenyl)-6,9-dioxo-5-(4-(trifluoromethyl)benzyl)-2,5,8-triazaspiro[3.5]nonan-2-yl)benzoate] | 300
COC(=O)c1ccc(N2CC3(C2)C(=O)N(c2ccc(C#N)cc2F)CC(=O)N3Cc2ccc(C(F)(F)F)cc2)cc1 [Compound 534, methyl 4-(8-(4-cyano-2-fluorophenyl)-6,9-dioxo-5-(4-(trifluoromethyl)benzyl)-2,5,8-triazaspiro[3.5]nonan-2-yl)benzoate] | 200
CNc1ccccc1N1CC2(C1)C(=O)N(c1ccc(C#N)cc1F)CC(=O)N2Cc1ccc(C(F)(F)F)cc1 [Compound 535, 3-fluoro-4-(2-(2-(methyl-amino)phenyl)-6,9-dioxo-5-(4-(trifluoromethyl)-benzyl)-2,5,8-triazaspiro-[3.5]nonan-8-yl)benzonitrile] | 300
CNc1cccc(N2CC3(C2)C(=O)N(c2ccc(C#N)cc2F)CC(=O)N3Cc2ccc(C(F)(F)F)cc2)c1 [Compound 536, 3-fluoro-4-[2-[3-(methylamino)phenyl]-6,9-dioxo-5-[[4-(trifluoromethyl)phenyl]methyl]-2,5,8-triazaspiro[3.5]nonan-8-yl]benzonitrile] | 200
CNC(=O)c1ccccc1N1CC2(C1)C(=O)N(c1ccc(C#N)cc1F)CC(=O)N2Cc1ccc(C(F)(F)F)cc1 [Compound 537, 2-(8-(4-cyano-2-fluorophenyl)-6,9-dioxo-5-(4-(trifluoromethyl)benzyl)-2,5,8-triazaspiro[3.5]nonan-2-yl)-N-methylbenzamide] | 300
CNc1ccc(N2CC3(C2)C(=O)N(c2ccc(C#N)cc2F)CC(=O)N3Cc2ccc(C(F)(F)F)cc2)cc1 [Compound 538, 3-fluoro-4-(2-(4-(methylamino)phenyl)-6,9-dioxo-5-(4-(trifluoromethyl)benzyl)-2,5,8-triazaspiro[3.5]nonan-8-yl)benzonitrile] | 200
CNC(=O)c1cccc(N2CC3(C2)C(=O)N(c2ccc(C#N)cc2F)CC(=O)N3Cc2ccc(C(F)(F)F)cc2)c1 [Compound 539, 3-(8-(4-cyano-2-fluorophenyl)-6,9-dioxo-5-(4-(trifluoromethyl)benzyl)-2,5,8-triazaspiro[3.5]nonan-2-yl)-N-methylbenzamide] | 200
CNC(=O)c1ccc(N2CC3(C2)C(=O)N(c2ccc(C#N)cc2F)CC(=O)N3Cc2ccc(C(F)(F)F)cc2)cc1 [Compound 540, 4-(8-(4-cyano-2-fluorophenyl)-6,9-dioxo-5-(4-(trifluoromethyl)benzyl)-2,5,8-triazaspiro[3.5]nonan-2-yl)-N-methylbenzamide] | 200
CNc1cc(N2CC3(C2)C(=O)N(c2ccc(C#N)cc2F)CC(=O)N3Cc2ccc(C(F)(F)F)cc2)ccc1C(=O)OC [Compound 541, methyl 4-(8-(4-cyano-2-fluorophenyl)-6,9-dioxo-5-(4-(trifluoromethyl)benzyl)-2,5,8-triazaspiro[3.5]nonan-2-yl)-2-(methylamino)benzoate] | 200

The remaining lines, values ahead:

CDMF75 IC15 [nM] | SMILES
200 | CNC(=O)c1ccc(N2CC3(C2)C(=O)N(c2ccc(C#N)cc2F)CC(=O)N3Cc2ccc(C(F)(F)F)cc2)cc1NC [Compound 542, 4-(8-(4-cyano-2-fluoro-phenyl)-6,9-dioxo-5-(4-(trifluoromethyl)benzyl)-2,5,8-triazaspiro[3.5]nonan-2-yl)-N-methyl-2-(methylamino)benzamide]
300 | CNc1ccc(N2CC3(C2)C(=O)N(c2ccc(C#N)cc2F)CC(=O)N3Cc2ccc(C(F)(F)F)cc2)cc1C(=O)OC [Compound 543, methyl 5-(8-(4-cyano-2-fluorophenyl)-6,9-dioxo-5-(4-(trifluoromethyl)benzyl)-2,5,8-triazaspiro[3.5]nonan-2-yl)-2-(methylamino)-benzoate]
300 | CNc1cccc(N2CC3(C2)C(=O)N(c2ccc(C#N)cc2F)CC(=O)N3Cc2ccc(C(F)(F)F)cc2)c1C(=O)OC [Compound 544, methyl 2-(8-(4-cyano-2-fluorophenyl)-6,9-dioxo-5-(4-(trifluoromethyl)benzyl)-2,5,8-triazaspiro[3.5]nonan-2-yl)-6-(methylamino)-benzoate]
200 | CNC(=O)c1cc(N2CC3(C2)C(=O)N(c2ccc(C#N)cc2F)CC(=O)N3Cc2ccc(C(F)(F)F)cc2)ccc1NC [Compound 545, 5-(8-(4-cyano-2-fluorophenyl)-6,9-dioxo-5-(4-(trifluoromethyl)benzyl)-2,5,8-triazaspiro[3.5]nonan-2-yl)-N-methyl-2-(methylamino)benzamide]
1000 | CNc1c(C(=O)OC)cccc1N1CC2(C1)C(=O)N(c1ccc(C#N)cc1F)CC(=O)N2Cc1ccc(C(F)(F)F)cc1 [Compound 546, methyl 3-(8-(4-cyano-2-fluorophenyl)-6,9-dioxo-5-(4-(trifluoromethyl)benzyl)-2,5,8-triazaspiro[3.5]nonan-2-yl)-2-(methylamino)-benzoate]
400 | CNC(=O)c1cccc(N2CC3(C2)C(=O)N(c2ccc(C#N)cc2F)CC(=O)N3Cc2ccc(C(F)(F)F)cc2)c1NC [Compound 547, 3-(8-(4-cyano-2-fluorophenyl)-6,9-dioxo-5-(4-(trifluoromethyl)benzyl)-2,5,8-triazaspiro[3.5]nonan-2-yl)-N-methyl-2-(methylamino)benzamide]
600 | O=C1CN(c2ncc(Cl)cc2F)C(=O)C2(CCC2)N1Cc1ccc(C(F)(F)F)cc1 [Compound 548, 8-(5-chloro-3-fluoropyridin-2-yl)-5-(4-(trifluoromethyl)-benzyl)-5,8-diazaspiro-[3.5]nonane-6,9-dione]
